# Experimental data from US20240101548A1, “HYDROXAMATE COMPOUND, PREPARATION METHOD THEREFOR AND APPLICATION THEREOF” (SHENZHEN CHIPSCREEN BIOSCIENCES CO., LTD., priority 2020, published 2024).
# Read-outs that look alike come from different tables or passages of the source.
# Legend:
# [1] = system: EPO-induced JAK2 signal pathway; assay: EPO-induced proliferation of UT-7 cells (JAK2 signal); type: cell-based, human; details: Homo sapiens, UT7; UT-7 cell proliferation, EPO 10 ng/mL, 72 hours; read-out: Inhibition activity IC50 on EPO-induced JAK2 signal pathway
# Description: The cytokine EPO, i.e. erythropoietin, can promote the proliferation and division of erythroid progenitor cells, and the signal pathway induced by EPO coupling with its receptor is mediated by JAK2-STAT5.
# Human promegakaryocytic leukemia cell line UT-7 was commercially available from Cell Resource Center, Institute of Basic Medicine, Chinese Academy of Medical Sciences. The culture medium was RPIM1640 containing 10% FBS, and EPO was added for a final concentration of 10 ng/mL.
# The inhibition rate of the tested compound on EPO-induced cell proliferation was calculated using Microsoft Excel.
# UT-7 cell line was inoculated in 96-well plate with flat bottom at 15000 cells per well, each well was added with 10 ng/mL of human recombinant EPO (Human EPO PEPROTECH 100-64-10UG), along with tested compound respectively for a final concentration of 0, 100, 1000 or 10000 nM. After culture at 37° C. and 5% CO2 for 72 hours, alamarBlue™ Cell Viability Reagent was added to each well following the instructions. After incubation at 37° C. for color reaction, the fluorescence value at Ex530/Em590 was detected using Tecan Spark™ 10M multimode microplate reader.
# (§1) The well in which neither compound nor cytokine was added was designated as 00 control well, and the fluorescence value in the wells in which the final concentration of compound was 0 was designated as 100 control. The inhibition activity MC50 ofthe tested compound on JAK2 could be calculated from the inhibition rate ofthe tested compound on EPO-induced cell proliferation at different doses.
# [2] = system: IL-2-induced JAK1/JAK3 signal pathway; assay: IL-2-induced proliferation of KHYG-1 cells (JAK1/JAK3 signal); type: cell-based, human; details: Homo sapiens, read-out: Inhibition activity IC50 on IL-2-induced JAK1/JAK3 signal pathway
# Description: The main physiological function of cytokine IL-2 is to stimulate and maintain the proliferation and differentiation of T cells. Generally, IL-2 dependent T cells cannot survive in in-vitro culture for a long time, but the addition of IL-2 can make them continue to proliferate. The signal pathway induced by IL-2 coupling with its receptor is mediated by JAK1/JAK3-STAT5, so the inhibitor of JAK1 and/or JAK3 can inhibit the proliferation of IL-2 dependent cells.
# Human natural killer cell lymphoma cell line KHYG-1 was commercially available from Health Science Research Resources Bank (HSRRB), and relevant culture conditions referred to those from HSRRB.
# The inhibition rate of the tested compound on IL-2-induced cell proliferation was calculated using Microsoft Excel.
# After culture at 37° C. and 5% CO2 for 72 hours, alamarBlue™ Cell Viability Reagent was added to each well following the instructions.
# as §1, with “0%” for “00”, “100%” for “100”, “[…] of the” for “MC50 ofthe”, “JAK1/JAK3” for “JAK2”, “of the” for “ofthe”, “IL-2-induced” for “EPO-induced”
# [3] = KHYG-1 cell proliferation, IL-2 10 ng/mL, 72 hours
Compound,IC50 [1],"IC50 [2, 3]","IC50 ([2]; KHYG-1, 72 h)"
"CCONC(=O)c1cnc(NC(=O)C2CC2)cc1Nc1cccc(-c2cnn(C)c2)c1OC [Example 26, 6-(cyclopropylcarboxamido)-N-ethoxy-4-((2-methoxy-3-(1-methyl-1H-pyrazol-4-yl)phenyl)amino)nicotinamide]",> 10 µM,> 10 µM,
"CCONC(=O)c1cnc(Nc2ccc(C3CC3)cn2)cc1Nc1ccccc1N(C)S(C)(=O)=O [Example 27, 6-((5-cyclopropylpyridin-2-yl)amino)-N-ethoxy-4-((2-(N-methylmethanesulfonamido)phenyl)amino)nicotinamide]",> 10 µM,> 10 µM,
"CONC(=O)c1cnc(NC(=O)C2CC2)cc1Nc1ccc2cnn(C)c2c1 [Example 28, 6-(cyclopropylcarboxamido)-N-methoxy-4-((1-methyl-1H-indazol-6-yl)amino)nicotinamide]",> 10 µM,> 10 µM,
"CONC(=O)c1cnc(Nc2cccc(F)n2)cc1Nc1cccc(-c2ccn(C)n2)c1OC [Example 30, 6-((6-fluoropyridin-2-yl)amino)-N-methoxy-4-((2-methoxy-3-(1-methyl-1H-pyrazol-3-yl)phenyl)amino)nicotinamide]",> 10 µM,> 10 µM,
"CONC(=O)c1cnc(NC(=O)C2CC2)cc1Nc1cccc(C#N)c1OC [Example 31, 4-((3-cyano-2-methoxyphenyl)amino)-6-(cyclopropylcarboxamido)-N-methoxy nicotinamide]",> 10 µM,> 10 µM,
"CONC(=O)c1cnc(NC(=O)C2CC2)cc1Nc1cccc(F)c1N(C)S(C)(=O)=O [Example 32, 6-(cyclopropylcarboxamido)-4-((3-fluoro-2-(N-methylmethanesulfonamido)phenyl)amino)-N-methoxy nicotinamide]",> 10 µM,> 10 µM,
"CONC(=O)c1cnc(NC(=O)C2CC2)cc1Nc1cccc(C)c1N(C)S(C)(=O)=O [Example 33, 6-(cyclopropylcarboxamido)-N-methoxy-4-((3-methyl-2-(N-methylmethanesulfonamido)phenyl)amino)nicotinamide]",> 10 µM,> 10 µM,
"CONC(=O)c1cnc(NC(=O)C2CC2)cc1Nc1ccccc1S(=O)(=O)N(C)C [Example 34, 6-(cyclopropylcarboxamido)-4-((2-(N,N-dimethylaminosulfonyl)phenyl)amino)-N-methoxy nicotinamide]",> 10 µM,> 10 µM,
"CONC(=O)c1cnc(NC(=O)C2CC2)cc1Nc1cccnc1N(C)S(C)(=O)=O [Example 35, 6-(cyclopropylcarboxamido)-N-methoxy-4-((2-(N-methylmethanesulfonamido)pyridin-3-yl)amino)nicotinamide]",> 10 µM,> 10 µM,
"CONC(=O)c1cnc(Nc2cccc(F)n2)cc1Nc1ccccc1S(=O)(=O)N(C)C [Example 37, 4-((2-(N,N-dimethylaminosulfonyl)phenyl)amino)-6-((6-fluoropyridin-2-yl)amino)-N-methoxy nicotinamide]",> 10 µM,> 10 µM,
"CONC(=O)c1cnc(NC(=O)C2CC2)cc1Nc1ccccc1OC1COC1 [Example 39, 6-(cyclopropylcarboxamido)-N-methoxy-4-((2-(oxetan-3-yloxy)phenyl)amino)nicotinamide]",> 10 µM,,> 10 µM
CONC(=O)c1cnc(Nc2cccc(F)n2)cc1Nc1ccccc1OC1COC1 [Example 40],> 10 µM,> 10 µM,
"CONC(=O)c1cnc(NC(=O)C2CC2)cc1Nc1cccc(-c2cnn(C)c2)c1C#N [Example 48, 4-((2-cyano-3-(1-methyl-1H-pyrazol-4-yl)phenyl)amino)-6-(cyclopropylcarboxamido)-N-methoxy nicotinamide]",> 10 µM,> 10 µM,
"CONC(=O)c1cnc(Nc2ccc(F)cn2)cc1Nc1cccc(-c2cnn(C)c2)c1C#N [Example 49, 4-((2-cyano-3-(1-methyl-1H-pyrazol-4-yl)phenyl)amino)-6-((5-fluoropyridin-2-yl)amino)-N-methoxy nicotinamide]",> 10 µM,> 10 µM,
"CONC(=O)c1cnc(NC(=O)C2CC2)cc1Nc1cccc(-c2ccn(C)n2)c1OCC(F)(F)F [Example 50, 6-(cyclopropylcarboxamido)-N-methoxy-4-((3-(1-methyl-1H-pyrazol-3-yl)-2-(2,2,2-trifluoroethoxy)phenyl)amino)nicotinamide]",> 10 µM,> 10 µM,
"CONC(=O)c1cnc(Nc2ccc(F)cn2)cc1Nc1cccc(-c2ccn(C)n2)c1OCC(F)(F)F [Example 51, 6-((5-fluoropyridin-2-yl)amino)-N-methoxy-4-((3-(1-methyl-1H-pyrazol-3-yl)-2-(2,2,2-trifluoroethoxy)phenyl)amino)nicotinamide]",> 10 µM,> 10 µM,
"CONC(=O)c1nnc(NC(=O)C2CC2)cc1Nc1cccc(-c2ncn(C)n2)c1OC [Example 52, 6-(cyclopropylcarboxamido)-N-methoxy-4-((2-methoxy-3-(1-methyl-1H-1,2,4-triazol-3-yl)phenyl)amino)pyridazine-3-carboxamide]",> 10 µM,> 10 µM,
"CONC(=O)c1nnc(NC(=O)C2CC2)cc1Nc1cccc(-c2ccn(C)n2)c1OC [Example 53, 6-(cyclopropylcarboxamido)-N-methoxy-4-((2-methoxy-3-(1-methyl-1H-pyrazol-3-yl)phenyl)amino)pyridazine-3-carboxamide]",> 10 µM,> 10 µM,
"CONC(=O)c1cnc(NC(=O)C2CC2)cc1Nc1cccc(-c2cnn(C)c2)c1OC(F)F [Example 54, 6-(cyclopropylcarboxamido)-4-((2-(difluoromethoxy)-3-(1-methyl-1H-pyrazol-4-yl)phenyl)amino)-N-methoxy nicotinamide]",> 10 µM,> 10 µM,
"CONC(=O)c1cnc(NC(=O)C2CC2)cc1Nc1cccc(-c2noc(C)n2)c1OC [Example 55, 6-(cyclopropylcarboxamido)-N-methoxy-4-((2-methoxy-3-(5-methyl-1,2,4-oxadiazol-3-yl)phenyl)amino)nicotinamide]",> 10 µM,> 10 µM,
"CONC(=O)c1cnc(NC(=O)C2CC2)cc1Nc1cnccc1N(C)S(C)(=O)=O [Example 56, 6-(cyclopropylcarboxamido)-N-methoxy-4-((4-(N-methylmethanesulfonamido)pyridin-3-yl)amino)nicotinamide]",> 10 µM,> 10 µM,
"CONC(=O)c1cnc(NC(=O)C2CC2)cc1Nc1cccc(C(N)=O)c1OC [Example 57, 4-((3-carbamoyl-2-methoxyphenyl)amino)-6-(cyclopropylcarboxamido)-N-methoxy nicotinamide]",> 10 µM,> 10 µM,
"CONC(=O)c1cnc(Nc2ccc(F)cn2)cc1Nc1cnccc1N(C)S(C)(=O)=O [Example 58, 6-((5-fluoropyridin-2-yl)amino)-N-methoxy-4-((4-(N-methylmethanesulfonamido)pyridin-3-yl)amino)nicotinamide]",> 10 µM,> 10 µM,
"CONC(=O)c1cnc(NC(=O)C2CC2)cc1Nc1ccc(C)nc1N(C)S(C)(=O)=O [Example 59, 6-(cyclopropylcarboxamido)-N-methoxy-4-((6-methyl-2-(N-methylmethanesulfonamido)pyridin-3-yl)amino)nicotinamide]",> 10 µM,> 10 µM,
